The record followed here is ChEMBL document CHEMBL1201862, “PubChem BioAssay data set” (2004).

Calls of active or inactive are those of the source.

Experiment [1] concerns the target Polyadenylate-binding protein 1 (Homo sapiens, UniProt P11940). Nature of the experiment: PABP1 MLLE–PAM2 binding inhibitor potency, dose response, biochemical, fluorescence polarization, FITC-PAM2 peptide (AID 602259). In kind it is functional. To be noted: read-out: IC50_Mean. A general note: In fluorescence polarisation assays a small probe gives low polarisation when free and higher when bound to something large.

Experiment [2] deals with HEK293. Nature of the experiment: cells. Format: functional, cell-based. Conditions: Homo sapiens.
Experiment [3] concerns the target T1, Streptokinase A (Streptococcus pyogenes serotype M1, UniProt P10520).
T1 sequence (P10520 whole entry): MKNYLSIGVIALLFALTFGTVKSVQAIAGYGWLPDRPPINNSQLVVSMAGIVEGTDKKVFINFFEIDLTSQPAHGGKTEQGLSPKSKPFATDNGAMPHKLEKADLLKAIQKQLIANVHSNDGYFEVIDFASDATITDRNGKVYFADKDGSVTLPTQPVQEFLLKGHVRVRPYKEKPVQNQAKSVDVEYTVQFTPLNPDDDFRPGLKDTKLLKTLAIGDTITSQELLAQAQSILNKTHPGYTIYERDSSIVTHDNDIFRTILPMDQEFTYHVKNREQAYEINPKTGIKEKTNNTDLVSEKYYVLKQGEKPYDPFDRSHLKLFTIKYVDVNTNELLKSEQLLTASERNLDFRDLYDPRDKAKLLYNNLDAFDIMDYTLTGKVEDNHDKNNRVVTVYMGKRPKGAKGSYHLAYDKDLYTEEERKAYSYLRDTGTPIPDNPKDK
Briefly: S. pyogenes streptokinase expression inhibitors, potency, dose response, plasminogen activation absorbance, OD405 (AID 1914).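 Note: secreted streptokinase activity via plasminogen activation per viability signal from cell pellet.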 Format: functional, Streptococcus pyogenes M1 GAS.

Experiment [4] deals with Nucleotide-binding oligomerization domain-containing protein 2 (Homo sapiens, UniProt Q9HC29). Briefly: NOD2 signaling inhibitors, cell-based, luminescence, uHTS, HEK293 (AID 1566). Format: functional.
Chain of Nucleotide-binding oligomerization domain-containing protein 2 (Q9HC29 whole entry, the tested form may be a part): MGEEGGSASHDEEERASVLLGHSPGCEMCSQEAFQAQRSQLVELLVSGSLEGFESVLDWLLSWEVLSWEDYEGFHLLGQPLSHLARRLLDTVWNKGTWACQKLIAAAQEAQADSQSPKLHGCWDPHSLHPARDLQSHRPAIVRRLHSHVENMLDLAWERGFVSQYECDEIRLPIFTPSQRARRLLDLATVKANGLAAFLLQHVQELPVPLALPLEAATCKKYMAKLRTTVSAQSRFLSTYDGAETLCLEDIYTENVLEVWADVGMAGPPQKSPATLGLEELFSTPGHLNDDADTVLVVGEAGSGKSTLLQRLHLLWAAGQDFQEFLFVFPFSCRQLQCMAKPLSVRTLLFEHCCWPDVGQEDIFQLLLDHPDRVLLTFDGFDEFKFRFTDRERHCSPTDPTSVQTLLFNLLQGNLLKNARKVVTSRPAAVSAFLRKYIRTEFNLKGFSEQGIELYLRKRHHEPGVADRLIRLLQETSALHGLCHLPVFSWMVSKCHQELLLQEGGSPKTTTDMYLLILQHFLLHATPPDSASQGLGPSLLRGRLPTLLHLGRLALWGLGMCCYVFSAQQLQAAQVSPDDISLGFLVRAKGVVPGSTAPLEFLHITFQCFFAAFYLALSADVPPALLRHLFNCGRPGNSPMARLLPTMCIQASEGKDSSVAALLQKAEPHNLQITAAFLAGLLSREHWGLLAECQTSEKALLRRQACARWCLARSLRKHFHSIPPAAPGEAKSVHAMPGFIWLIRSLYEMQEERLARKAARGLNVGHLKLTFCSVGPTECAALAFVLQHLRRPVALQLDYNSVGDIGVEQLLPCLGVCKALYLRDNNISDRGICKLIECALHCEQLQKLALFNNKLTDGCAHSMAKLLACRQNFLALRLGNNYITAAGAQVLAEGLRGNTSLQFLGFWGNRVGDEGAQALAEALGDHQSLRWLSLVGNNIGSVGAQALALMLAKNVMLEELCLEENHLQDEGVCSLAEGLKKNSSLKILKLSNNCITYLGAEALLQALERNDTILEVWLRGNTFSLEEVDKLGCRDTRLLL
The subject of experiment [5] is HEK293. Briefly: NOD2 signaling inhibitors in MDP-stimulated cells, cell-based, uHTS, luminescence (AID 2001). In kind it is functional. Conditions: Homo sapiens.
Experiment [6] has as its target Heat shock protein HSP 90-alpha (Homo sapiens, UniProt P07900). Format: functional, organism-based.
Experiment [7] deals with Delta-type opioid receptor (Homo sapiens, UniProt P41143). Nature of the experiment: Counterscreen for agonists of heterodimerization of the mu 1 (OPRM1) and delta 1 (OPRD1) opioid receptors: Luminescence-based cell-based high throughput dose response assay to identify agonists of OPRD1 homodimerization. [Related pubchem assays (depositor defined):AID504326, AID504355, AID504692, AID504904, AID504905]. Format: functional. Background: The purpose of a counterscreen is to sort out artefacts and off-target activity.
Chain of Delta-type opioid receptor (P41143 whole entry): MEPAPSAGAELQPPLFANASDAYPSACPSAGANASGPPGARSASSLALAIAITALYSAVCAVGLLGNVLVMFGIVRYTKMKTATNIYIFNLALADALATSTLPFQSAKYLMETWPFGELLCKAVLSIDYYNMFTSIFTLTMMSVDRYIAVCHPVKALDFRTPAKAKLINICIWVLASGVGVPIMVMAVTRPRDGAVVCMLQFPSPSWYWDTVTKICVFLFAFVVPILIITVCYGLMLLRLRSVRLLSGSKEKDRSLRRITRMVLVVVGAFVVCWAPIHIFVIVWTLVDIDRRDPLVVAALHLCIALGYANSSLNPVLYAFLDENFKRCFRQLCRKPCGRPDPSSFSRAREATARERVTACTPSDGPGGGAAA

The test system of experiment [8] is H4. Nature of the experiment: Inhibitors of Prion Protein 5' UTR mRNA Measured in Cell-Based System Using Plate Reader - 2078-01_Inhibitor_Dose_DryPowder_Activity. [Related pubchem assays (depositor defined):AID488894]. Format: functional. To be noted: Homo sapiens.
The target in experiment [9] is T2, SUMO-activating enzyme (Homo sapiens, UniProt Q9UBT2). Nature of the experiment: SUMOylation inhibitor hit validation, confirmation, SUMOylation inhibitor project, biochemical, AlphaScreen (AID 2018). Format: functional. On the technique in general: Alpha assays give light when donor and acceptor beads are brought close together.
T2 sequence (Q9UBE0 whole entry): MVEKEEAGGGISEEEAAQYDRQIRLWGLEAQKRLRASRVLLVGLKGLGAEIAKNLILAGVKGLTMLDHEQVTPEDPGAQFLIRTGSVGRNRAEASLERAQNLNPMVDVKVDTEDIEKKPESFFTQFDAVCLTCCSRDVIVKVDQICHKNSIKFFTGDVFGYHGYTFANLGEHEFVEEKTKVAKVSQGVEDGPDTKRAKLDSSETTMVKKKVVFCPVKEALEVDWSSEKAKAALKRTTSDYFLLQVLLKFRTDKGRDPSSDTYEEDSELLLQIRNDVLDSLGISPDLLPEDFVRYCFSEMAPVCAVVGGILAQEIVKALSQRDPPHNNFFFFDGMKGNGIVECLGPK
T2 sequence (Q9UBT2 whole entry): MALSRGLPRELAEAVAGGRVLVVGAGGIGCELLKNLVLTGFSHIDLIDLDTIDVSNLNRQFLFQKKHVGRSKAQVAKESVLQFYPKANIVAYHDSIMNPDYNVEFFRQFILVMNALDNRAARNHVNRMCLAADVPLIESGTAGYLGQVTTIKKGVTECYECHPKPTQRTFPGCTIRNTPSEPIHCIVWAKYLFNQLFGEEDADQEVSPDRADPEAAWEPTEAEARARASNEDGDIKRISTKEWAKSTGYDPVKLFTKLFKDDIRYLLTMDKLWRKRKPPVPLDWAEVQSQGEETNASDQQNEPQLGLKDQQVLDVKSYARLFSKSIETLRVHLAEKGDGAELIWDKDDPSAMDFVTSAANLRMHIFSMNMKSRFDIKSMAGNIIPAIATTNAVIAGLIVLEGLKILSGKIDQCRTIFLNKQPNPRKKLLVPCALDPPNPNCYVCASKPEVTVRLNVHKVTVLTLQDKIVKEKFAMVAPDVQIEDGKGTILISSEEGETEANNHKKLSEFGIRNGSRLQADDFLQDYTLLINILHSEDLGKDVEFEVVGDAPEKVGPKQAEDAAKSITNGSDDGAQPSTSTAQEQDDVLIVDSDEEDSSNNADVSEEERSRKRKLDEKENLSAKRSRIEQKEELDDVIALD
Experiment [10] has as its target T2, SUMO-activating enzyme. Nature of the experiment: inhibitors of in vitro SUMOylation cascade, primary screen, biochemical, HTRF, uHTS (AID 2006). Format: protein-complex assay.
Experiment [11] can be described thus: AlphaScreen signal interference compounds, dose response, artefact control for ARNT-TACC3 interaction inhibitor project, biochemical, luminescence, cherry-pick (AID 651705).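 Note: AlphaScreen bead proximity signal that flags compounds interfering with the detection technology; potency reflects signal decrease which marks the compound as an assay artifact.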 In kind it is functional.
Experiment [12] can be described thus: ARNT/TACC3 interaction disruptors, potency, confirmation, biochemical, AlphaScreen, cherry-picked samples (AID 651703).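 Note: His-tagged ARNT PAS-B domain paired with GST-TACC3 E629A dimer coactivator fragment; potency of inhibitors that break up the complex and lower AlphaScreen signal.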 Format: functional, Homo sapiens.
Experiment [13] can be described thus: inhibitors of intracellular T. cruzi replication, confirmation, NIH3T3 host cells, beta-gal luminescence (AID 2044).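 Note: intracellular parasites grown in NIH/3T3 mouse fibroblasts as host cells; luminescent beta-galactosidase reporter signal from transgenic T. cruzi replicating inside host cells; inhibitors lower the luminescence signal.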 In kind it is functional, cell-based.
Experiment [14] deals with T3, Serine/threonine-protein phosphatase (Homo sapiens, UniProt Q9BPW0).
T3 sequence (Q9BPW0 whole entry): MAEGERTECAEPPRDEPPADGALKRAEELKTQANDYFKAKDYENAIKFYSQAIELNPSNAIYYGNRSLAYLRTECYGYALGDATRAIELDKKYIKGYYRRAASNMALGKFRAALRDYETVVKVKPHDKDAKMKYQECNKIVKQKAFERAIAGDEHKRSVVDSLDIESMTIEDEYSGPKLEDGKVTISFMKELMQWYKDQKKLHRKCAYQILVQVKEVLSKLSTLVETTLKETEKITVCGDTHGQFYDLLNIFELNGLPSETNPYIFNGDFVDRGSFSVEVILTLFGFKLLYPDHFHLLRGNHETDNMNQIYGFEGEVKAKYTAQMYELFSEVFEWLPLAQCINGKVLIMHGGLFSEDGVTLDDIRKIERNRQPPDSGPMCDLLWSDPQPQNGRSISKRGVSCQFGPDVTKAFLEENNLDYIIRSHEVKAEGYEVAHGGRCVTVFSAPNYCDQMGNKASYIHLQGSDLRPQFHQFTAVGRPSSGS
Briefly: PP5 phosphatase inhibitors, dose response, biochemical, fluorescence (AID 2395).

Experiment [15] is described as follows: cytotoxicity toward NIH3T3 fibroblasts, dose response, counter-screen, cell-based, ATP luminescence, mouse fibroblasts (AID 2010).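 Note: cells exposed to compound for about 90 hours before reading.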 In kind it is functional.
The target of experiment [16] is T4, Caspase-3 (Homo sapiens, UniProt P42574).
T4 sequence (P42574 whole entry): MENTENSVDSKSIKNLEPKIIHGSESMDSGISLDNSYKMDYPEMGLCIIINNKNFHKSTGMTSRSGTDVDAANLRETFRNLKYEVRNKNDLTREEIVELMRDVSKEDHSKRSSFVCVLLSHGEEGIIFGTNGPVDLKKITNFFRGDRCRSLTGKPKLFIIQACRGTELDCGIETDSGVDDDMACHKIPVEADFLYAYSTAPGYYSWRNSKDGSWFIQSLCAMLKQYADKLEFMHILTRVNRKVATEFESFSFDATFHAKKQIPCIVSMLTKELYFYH
Format: functional.

For experiment [17], the target named is T4, Caspase-3. Nature of the experiment: SAR Analysis of small molecule inhibitors of Sentrin-specific proteases (SENPs) using a Caspase-3 Selectivity assay. [Related pubchem assays (depositor defined):AID2540, AID2599, AID434973, AID489001]. In kind it is functional.

Chain of Polyadenylate-binding protein 1 (P11940 whole entry): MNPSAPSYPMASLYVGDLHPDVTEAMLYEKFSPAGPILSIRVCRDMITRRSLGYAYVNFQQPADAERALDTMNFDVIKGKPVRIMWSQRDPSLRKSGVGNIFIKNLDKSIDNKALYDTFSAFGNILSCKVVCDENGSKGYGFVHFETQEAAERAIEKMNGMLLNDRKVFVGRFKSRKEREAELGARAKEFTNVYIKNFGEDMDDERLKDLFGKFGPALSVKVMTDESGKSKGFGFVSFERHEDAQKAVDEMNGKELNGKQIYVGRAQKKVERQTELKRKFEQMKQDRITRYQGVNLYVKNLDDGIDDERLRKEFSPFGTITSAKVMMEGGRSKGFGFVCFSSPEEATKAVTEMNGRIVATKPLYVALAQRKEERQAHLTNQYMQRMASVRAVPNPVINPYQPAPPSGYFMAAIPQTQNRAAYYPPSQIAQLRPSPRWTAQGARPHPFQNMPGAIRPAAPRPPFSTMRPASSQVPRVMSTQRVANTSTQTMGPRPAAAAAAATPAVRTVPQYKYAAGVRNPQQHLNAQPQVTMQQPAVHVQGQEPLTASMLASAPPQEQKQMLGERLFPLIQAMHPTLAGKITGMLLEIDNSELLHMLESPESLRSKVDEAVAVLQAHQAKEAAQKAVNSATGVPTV

Turning to `O=C1/C(=N\c2cccc(O)c2)C(N2CCCCC2)=C(O)c2ccccc21`, in [1], the IC50 is > 66 µM (inactive).
For `Cc1cc(/C=C2\SC(=S)N(C)C2=O)c(C)n1-c1ccc(O)cc1`, the IC50 in experiment [2] is 0.345 µM (active); in experiment [5], 6.54 µM (inactive). Also, the EC50 in experiment [3] is > 150 µM (not active); in experiment [4] it was 0.57 µM (active); in experiment [7], 15.1 µM (inactive). In addition, the AC50 was 8.02 µM (active) in experiment [6] and 0.181 µM (active) in experiment [8].
`COC(=O)c1cccc(-c2ccc(C(c3c(C)n[nH]c3O)c3c(C)n[nH]c3O)o2)c1`: the IC50 in experiment [9] is 9.36 µM (active); in experiment [10], > 100 µM (inactive). The results for the AC50 in experiment [11] and in experiment [12] were 107 µM (active) and 87.9 µM (active), respectively.
For `Cc1ccc(C(=O)NNc2cc(N3CCCC3)nc(N3CCCC3)n2)cc1`, the values for the EC50 in experiment [13] and in [15] were 2.3 µM (active) and > 30 µM (not active), respectively. Besides, the results for the IC50 in experiment [14], in experiment [16] and in experiment [17] were 4.1 µM (active), > 100 µM (inactive) and > 99 µM (inactive), respectively.

The EC50 is the midpoint of the concentration-response curve. The term AC50 denotes the midpoint of the concentration-response curve, whichever way the signal moves.
